Measurements: US11814376B2, “Hepatitis b core protein modulators” (Assembly Biosciences, Inc., priority 2015, dated 2023)
Like-named read-outs stand apart in the source and are kept apart here.

Legend:
[1] = tested on: HBV viral load in AD38 cells; assay: Viral load production in AD38 cells, quantitative PCR of the core sequence in supernatant; type: cell-based; conditions: Hepatitis B virus, 144 h, read-out: AD38 Viral Load (%) (VL with cmpd/VL in DMSO control) at 10 μM
AD38 cells = assay: Viability of AD38 cells (Promega CellTiter-Glo); type: cell-based; conditions: 10 μM compound, 6 days, CellTiter-Glo luminescence normalized to DMSO control (100%)
Outline: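 AD38 cells were seeded at 50,000/well on collagen-coated plates and treated with compound added as a 10× solution in 10% DMSO for 6 days at 37° C. Viability was measured by CellTiter-Glo luminescence in tetracycline-free medium with 2% FBS and 1% DMSO, and expressed as percent of DMSO control.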

[2] = 10 μM compound, 6 days at 37° C., supernatant qPCR, relative to DMSO control

SMILES | activity at 10 µM [1, 2] | AD38 Viability Normalized Result (cmpd/DMSO %) at 10 μM (AD38 cells) | activity at 10 µM [1]
Cl.O=C(NCc1cnc(-c2ccc(OCC3CCCNC3)cc2)s1)c1ccc2c(c1)NC(=O)c1ccccc1S2(=O)=O (centres unmarked) [compound 1997, 11-oxo-N-((2-(4-(piperidin-3-ylmethoxy)phenyl)thiazol-5-yl)methyl)-10, 11-dihydrodibenzo [b, f] [1, 4] thiazepine-8-carboxamide 5,5-dioxide hydrochloride] | 9.7% | 104% | –
O=C(NCc1cnc(-c2ccc(O)c(F)c2)s1)c1ccc2c(c1)NC(=O)c1ccccc1S2(=O)=O [compound 1664] | 0.6% | 99% | –
CCc1cc2c(cc1C(=O)NCc1cnc(C(F)(F)F)s1)NC(=O)c1ccccc1S2(=O)=O [compound 11041] | 47.4% | 94% | –
O=C(NCc1cnc(-n2nccn2)s1)c1ccc2c(c1)NC(=O)c1ccccc1S2(=O)=O [compound 11048] | 1.2% | 103% | –
O=C(O)c1ccc(-c2ncc(CNC(=O)c3ccc4c(c3)NC(=O)c3ccccc3S4)s2)cc1 [compound 1599, 4-(5-((11-oxo-10, 11-dihydrodibenzo [b, f] [1, 4]thiazepine-8-carboxamido)methyl)thiazol-2-yl) benzoic acid] | 5.9% | 61% | –
Cc1c(C(=O)NCc2cnc(C(F)(F)F)s2)cc(Br)c2c1NC(=O)c1ccccc1S2 [compound 1914] | 120% | 77% | –
CN(C)c1ccnc(-c2ncc(CNC(=O)c3ccc4c(c3)NC(=O)c3ccccc3S4(=O)=O)s2)c1 [compound 1889, N-((2-(4-(dimethylamino)pyridin-2-yl)thiazol-5-yl)methyl)-11-oxo-10,11-dihydrodibenzo [b, f] [1, 4] thiazepine-8-carboxamide 5,5-dioxide] | 4.6% | 98% | –
N#Cc1ccc(-c2ncc(CNC(=O)c3cc4c(cc3Cl)S(=O)(=O)c3ccccc3C(=O)N4)s2)cc1 [compound 1935] | 0.7% | 112% | –
O=C(O)CSc1ncc(CNC(=O)c2ccc3c(c2)NC(=O)c2ccccc2O3)s1 [compound 1616, 2-((5-((11-oxo-10, 11-dihydrodibenzo [b, f] [1, 4]oxazepine-8-carboxamido)methyl)thiazol-2-yl)thio) acetic acid] | 105% | 103% | –
Cl.O=C(NCc1cnc(-c2ccc(N3CCNCC3)cc2)s1)c1ccc2c(c1)NC(=O)c1ccccc1S2(=O)=O [compound 11018, 11-oxo-N-((2-(4-(piperazin-1-yl)phenyl)thiazol-5-yl)methyl)-10, 11-dihydrodibenzo [b, f] [1, 4] thiazepine-8-carboxamide 5,5-dioxide hydrochloride] | 3.9% | 98% | –
O=C(O)COc1ccc(-c2ncc(CNC(=O)c3ccc4c(c3)NC(=O)c3ccccc3S4(=O)=O)s2)cc1 [compound 1581, 2-(4-(5-((5,5-dioxido-11-oxo-10, 11-dihydrodibenzo [b, f] [1, 4]thiazepine-8-carboxamido)methyl)thiazol-2-yl)phenoxy) acetic acid] | 34.4% | 93% | –
CCN(CC)CCC(C)Oc1ccc(-c2ncc(CNC(=O)c3ccc4c(c3)NC(=O)c3ccccc3S4(=O)=O)s2)cc1 (centres unmarked) [compound 11101] | 1.9% | 85% | –
O=C(NCc1cnc(-c2ccc(OCCCN3CCCCC3)cc2)s1)c1ccc2c(c1)NC(=O)c1ccccc1S2(=O)=O [compound 1992] | 5% | 89% | –
O=C(NCc1cnc(-c2ccc(O)cn2)s1)c1ccc2c(c1)NC(=O)c1ccccc1S2(=O)=O [compound 1879, N-((2-(5-hydroxypyridin-2-yl)thiazol-5-yl)methyl)-11-oxo-10, 11-dihydrodibenzo [b, f] [1, 4] thiazepine-8-carboxamide 5,5-dioxide] | 7.2% | 104% | –
CN(C)CCCCOc1ccc(-c2ncc(CNC(=O)c3ccc4c(c3)NC(=O)c3ccccc3S4(=O)=O)s2)cc1 [compound 11001] | 1.7% | 77% | –
O=C(NCc1scnc1C(F)(F)F)c1ccc2c(c1)NC(=O)c1ccccc1S2 [compound 1431] | 5.5% | 103% | –
O=C(NCc1cnc(-c2ccc(OCCC[N+]34CCC(CC3)CC4)cc2)s1)c1ccc2c(c1)NC(=O)c1ccccc1S2(=O)=O.[Br-] [compound 11108, 1-(3-(4-(5-((5,5-dioxido-11-oxo-10, 11-dihydrodibenzo [b, f] [1, 4]thiazepine-8-carboxamido)methyl)thiazol-2-yl)phenoxy)propyl) quinuclidin-1-ium bromide] | – | 95% | 11.2%
O=C(NCc1cnc(CN2CCOCC2)s1)c1ccc2c(c1)NC(=O)c1ccccc1S2(=O)=O [compound 1927] | 4.7% | 92% | –
CC(C)c1ncc(CNC(=O)c2ccc3c(c2)NC(=O)c2ccccc2O3)s1 [compound 1559] | 0.7% | 87% | –
